According to US7129361B2, “Thienylazolylalkoxyethanamines, their preparation and their application as medicaments” (Laboratorios del Dr. Esteve, S.A., priority 1998, dated 2006):

Columns and labels:
Male Swiss mice = assay: Analgesic activity: inhibition of contortions induced by phenylbenzoquinone in mice (Siegmund method); format: in vivo; conditions: 160 mg/Kg, oral administration, 60 minutes before i.p. phenylbenzoquinone; contortions counted for 15 minutes; versus vehicle control
Description: Analgesic Activity: Inhibition of Contortions Induced by Phenylbenzoquinone in Mice
The method described by Siegmund (E. Siegmund, et al, Proc. Exp. Biol. Med., 1957, 95, 729) has been used. Male Swiss mice are used, weighing between 17 and 22 grams and in groups of at least four animals.
The contortions are induced by injecting i.p. phenyl-p-benzoquinone (25 ml/Kg of a solution of 0.02% ethanol/water −5% v/v—with Evans blue at a mixing ratio of 0.1% p/v). The contortions are counted for 15 minutes after the moment of the injection. The products to be tested are suspended in Arabic gum (5% p/v) and distilled water and administered orally, at a dosage of 160 mg/Kg, 60 minutes before the phenylbenzoquinone injection. The inhibition of contortions produced by each product is determined, taking the contortions of a group of animals given a control as a reference. These animals only receive the vehicle orally, 60 minutes before administration of phenylbenzoquinone.

Structure (SMILES) | % Inhibition of contortions (Male Swiss mice) | melting point
CC(=O)Oc1ccccc1C(=O)O [Acetylsalicylic acid, reference compound] | 51% | 
CN(C)CCOC(c1cccs1)c1ccnn1C (stereo not drawn) [Example 1, 5-{α-[2-(dimethylamino)ethoxy]-2-thienylmethyl}-1-methyl-1H-pyrazol] | 71% | 
CN(C)CCOC(c1cccs1)c1ccnn1C.O=C(O)CC(O)(CC(=O)O)C(=O)O (stereo not drawn) [Example 2, Citrate of 5-{α-[2-(dimethylamino)ethoxy]-2-thienylmethyl}-1-methyl-1H-pyrazol] | 65% | 
Cc1ccsc1C(OCCN(C)C)c1ccnn1C (stereo not drawn) [Example 5, 5-{α-[2-(dimethylamino)ethoxy]-3-methyl-2-thienylmethyl}-1-methyl-1H-pyrazol] | 45% | 
CN(C)CCOC(C)(c1cccs1)c1ccnn1C (stereo not drawn) [Example 9, 5-{1-[2-(dimethylamino)ethoxy]-1-(2-thienyl)ethyl}-1-methyl-1H-pyrazol] | 37% | 
CN(C)CCOC(c1cccs1)c1ccnn1C.O=C(O)CC(O)(CC(=O)O)C(=O)O (stereo not drawn) [Example 12, Citrate of (+)-5-{α-[2-(dimethylamino)ethoxy]-2-thienylmethyl}-1-methyl-1H-pyrazol] | 52% | 
CN(C)CCOC(c1cccs1)c1ccnn1C.O=C(O)CC(O)(CC(=O)O)C(=O)O (stereo not drawn) [Example 13, Citrate of (−)-5-{α-[2-(dimethylamino)ethoxy]-2-thienylmethyl}-1-methyl-1H-pyrazol] | 87% | 
Cn1nccc1C(C)(O)c1cccs1 (stereo not drawn) [Example 21, 5-[1-hydroxy-1-(2-thienyl)ethyl]-1-methyl-1H-pyrazol] |  | 130 to 131 °C
CC(=O)Nc1ccc(O)cc1 [N-acetyl-p-aminophenol, reference compound] | 34% | 
